Test results taken from patent US10117430B2, “Malononitrile compounds for controlling animal pests” (BASF SE, priority 2012, dated 2018).

Legend:
Type in all cases: in vivo
[1] = tested on: Green Peach Aphid (Myzus persicae); assay: B.13 Green peach aphid test on sprayed bell pepper plants; details: 120 h, in comparison with untreated controls, after 5 days
Description: B.13 Green Peach Aphid (Myzus persicae)
The active compounds were formulated in cyclohexanone as a 10,000 ppm solution supplied in tubes. The tubes were inserted into an automated electrostatic sprayer equipped with an atomizing nozzle and they served as stock solutions for which lower dilutions were made in 50% acetone:50% water (v/v). A nonionic surfactant (Kinetic®) was included in the solution at a volume of 0.01% (v/v). Bell pepper plants at the first true-leaf stage were infested prior to treatment by placing heavily infested leaves from the main colony on top of the treatment plants. Aphids were allowed to transfer overnight to accomplish an infestation of 30-50 aphids per plant and the host leaves were removed. The infested plants were then sprayed by an automated electrostatic plant sprayer equipped with an atomizing spray nozzle. The plants were dried in the sprayer fume hood, removed, and then maintained in a growth room under fluorescent lighting in a 24-hr photoperiod at about 25° C. and about 20-40% relative humidity. Aphid mortality on the treated plants, relative to mortality on untreated control plants, was determined after 5 days.

[2] = tested on: Green Peach Aphid (Myzus persicae); assay: B.3 Green peach aphid systemic test, artificial diet under membrane; details: 72 h, concentration of the test solution 2500 mg/L, 3 days
How it was run: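 Systemic uptake from artificial liquid diet beneath a membrane, compound formulated in 75% water/25% DMSO and added to diet at several concentrations, two replicates. 5-8 adult aphids fed on treated diet for 3 days at about 23±1° C. and 50±5% RH. Mortality and fecundity scored visually.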

[3] = tested on: Rice brown plant hopper (Nilaparvata lugens); assay: B.11 Rice brown plant hopper test on sprayed rice seedlings; details: in comparison with untreated controls, after 72 hours
How it was run: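 Compounds formulated in 50:50 acetone:water with 0.1% vol/vol surfactant and sprayed onto potted rice seedlings. Air-dried plants were caged, infested with 10 adults and held at about 28-29 °C, 50-60% RH. Percent mortality scored after 72 hours.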

[4] = tested on: Cotton Aphid (Aphis gossypii, Mixed Life Stages); assay: B.14 Cotton aphid test on sprayed cotton plants; details: 120 h, in comparison with untreated controls, after 5 days
Protocol: B.14 Cotton Aphid (Aphis gossypii, Mixed Life Stages)
The active compounds were formulated in cyclohexanone as a 10,000 ppm solution supplied in 1.3 ml ABgene® tubes. These tubes were inserted into an automated electrostatic sprayer equipped with an atomizing nozzle and they served as stock solutions for which lower dilutions were made in 50% acetone:50% water (v/v). A nonionic surfactant (Kinetic®) was included in the solution at a volume of 0.01% (v/v). Cotton plants at the cotyledon stage were infested with aphids prior to treatment by placing a heavily infested leaf from the main aphid colony on top of each cotyledon. Aphids were allowed to transfer overnight to accomplish an infestation of 80-100 aphids per plant and the host leaf was removed. The infested plants were then sprayed by an automated electrostatic plant sprayer equipped with an atomizing spray nozzle. The plants were dried in the sprayer fume hood, removed from the sprayer, and then maintained in a growth room under fluorescent lighting in a 24-hr photoperiod at 25° C. and 20-40% relative humidity. Aphid mortality on the treated plants, relative to mortality on untreated control plants, was determined after 5 days.

[5] = tested on: Yellow Fever Mosquito (Aedes aegypti); assay: whole plant or invertebrate; details: 48 h, in comparison with untreated controls, larval mortality after 2 days
How it was run: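 Freshly hatched larvae (5-15 per well) in 200 μl tap water; compounds formulated in 75% water/25% DMSO and sprayed at 2.5 μl per well at several concentrations, two replicates. Incubated 2 days at 28±1° C., 80±5% RH; larval mortality scored visually.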

[6] = tested on: Cowpea Aphid (Aphis craccivora); assay: B.1 Cowpea aphid spray test on potted cowpea plants; details: in comparison with untreated controls, population reduction assessed after 24, 72 and 120 hours
Protocol: B.1 Cowpea Aphid (Aphis craccivora)
The active compounds were formulated in 50:50 (v/v) acetone:water. The test solution was prepared at the day of use. Potted cowpea plants colonized with approximately 100-150 aphids of various stages were sprayed after the pest population has been recorded. Population reduction was assessed after 24, 72, and 120 hours.

[7] = tested on: Boll Weevil (Anthonomus grandis); assay: B.9 Boll weevil microtiter diet test, egg and larval mortality; details: 120 h, in comparison with untreated controls, egg and larval mortality after 5 days
How it was run: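 Insect diet carrying 20-30 A. grandis eggs per well was sprayed with compounds formulated in 75% water/25% DMSO, at various concentrations with two replicates. Plates were held at about 23±1° C and 50±5% RH for 5 days. Egg and larval mortality were then scored visually.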

[8] = tested on: Silverleaf Whitefly (Bemisia argentifolii); assay: B.5 Silverleaf whitefly test on sprayed cotton plants; details: 72 h, in comparison with untreated controls, 3 days after treatment
How it was run: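 Cotyledon-stage cotton plants were electrostatically sprayed with compound diluted from a 10,000 ppm cyclohexanone stock into 50% acetone/water with 0.01% nonionic surfactant. After drying, 10–12 adult whiteflies (3–5 days old) were released onto each plant. Mortality was scored after 3 days at 25 °C and 20–40% RH against untreated plants.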

[9] = tested on: Southern Armyworm (Spodoptera eridania); assay: B.6 Southern armyworm test on sprayed lima bean plants; details: 96 h, in comparison with untreated controls, 4 days after treatment
Protocol: B.6 Southern Armyworm (Spodoptera eridania)
The active compounds were formulated in cyclohexanone as a 10,000 ppm solution supplied in 1.3 ml ABgene® tubes. These tubes were inserted into an automated electrostatic sprayer equipped with an atomizing nozzle and they served as stock solutions for which lower dilutions were made in 50% acetone:50% water (v/v). A nonionic surfactant (Kinetic®) was included in the solution at a volume of 0.01% (v/v). Lima bean plants (variety Sieva) were grown 2 plants to a pot and selected for treatment at the 1st true leaf stage. Test solutions were sprayed onto the foliage by an automated electrostatic plant sprayer equipped with an atomizing spray nozzle. The plants were dried in the sprayer fume hood and then removed from the sprayer. Each pot was placed into perforated plastic bags with a zip closure. Ten to 11 armyworm larvae were placed into the bag and the bags zipped closed. Test plants were maintained in a growth room at 25° C. and 20-40% relative humidity for 4 days, avoiding direct exposure to fluorescent light (24 hour photoperiod) to prevent trapping of heat inside the bags. Mortality and reduced feeding were assessed 4 days after treatment, compared to untreated control plants.

CC(c1ccc(F)cn1)C(C#N)(C#N)c1ccccc1 (stereo not shown) [II-8]
≥ 75%: mortality at 300 ppm [1] | mortality at 2500 µg/mL [2] | mortality at 300 ppm [3] | mortality at 300 ppm [4] | mortality at 2500 ppm [5] | mortality at 500 ppm [6] | mortality at 2500 ppm [7] | mortality at 500 ppm [8] | mortality at 300 ppm ([9]; 300 ppm) | mortality at 500 ppm ([9]; 500 ppm)
